Reference: patent US4584382A, “Pyridyl acrylate compound” (priority 1984, dated 1986)

What was measured:
H1 histamine receptor = target: T1, H1 histamine receptor (Cavia porcellus, UniProt P31389); experiment: Antihistaminic activity: antagonism of histamine concentration-response curves in isolated guinea-pig ileum longitudinal muscle (Schild plot); format: cell-based; conditions: negative log of the antagonist concentration shifting the histamine control curve 2X to the right; one hour incubation; read-out: pA2 (converted)
T1 construct: The longitudinal muscle was isolated from the intact ileum of guinea-pigs; from tissue; host or cells: guinea-pig (Hartley, male) ileum longitudinal muscle
T1 sequence (P31389 whole entry): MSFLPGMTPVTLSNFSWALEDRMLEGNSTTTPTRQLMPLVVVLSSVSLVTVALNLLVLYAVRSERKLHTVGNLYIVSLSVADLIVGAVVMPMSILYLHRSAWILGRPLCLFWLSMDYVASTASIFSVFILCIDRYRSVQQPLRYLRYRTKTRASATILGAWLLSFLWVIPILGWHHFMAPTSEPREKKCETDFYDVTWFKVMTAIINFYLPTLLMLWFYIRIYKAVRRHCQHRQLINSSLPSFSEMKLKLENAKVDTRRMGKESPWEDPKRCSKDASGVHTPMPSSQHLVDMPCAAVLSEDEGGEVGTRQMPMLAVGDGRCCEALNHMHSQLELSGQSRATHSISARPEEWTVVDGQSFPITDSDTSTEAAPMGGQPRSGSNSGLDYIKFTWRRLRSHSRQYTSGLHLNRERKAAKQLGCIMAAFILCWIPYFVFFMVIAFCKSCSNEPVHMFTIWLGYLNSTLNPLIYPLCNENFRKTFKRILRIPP
Protocol: The longitudinal muscle was isolated from the intact ileum of guinea-pigs (Hartley, male 250-400 g) and placed in an organ bath under 300 mg tension. After one hour of equilibration, cumulative concentration-response curves (Van Rossum, J. M., Arch. Int. Pharmacodyn. Ther. 143, 299-330, 1963) to histamine were obtained. Following washing, the tissues were incubated for one hour with the test compound and then a second histamine concentration-response curve was run. Shifts to the right of the agonist concentration-response curve produced by the antagonists were used to construct Schild plots (Arunlakshana, O. and Schild, H. O., Br. J. Pharmacol: 14, 48-58, 1959). Regression of Log (dr-1) on Log [B], where dr is an equiactive response in the presence and absence of antagonist and [B] is the molar concentration of antagonist, allowed an estimate of pA2, i.e. the negative log of the concentration of antagonist which shifts the control histamine concentration-response curve 2X to the right.

[1] = clinical use; cited from earlier work
[2] = human, in vivo; cited from earlier work
[3] = antihistamines now in use; cited from earlier work
[4] = Sedative effects (statement); format: in vivo; conditions: in contrast to the antihistamines in present use
[5] = system: H1 histamine receptor sites; experiment: Binding to H1 histamine receptor sites (statement); design: species or system mammals including humans
[6] = Anticholinergic activity / side effects (statement); conditions: in contrast to the antihistamines in present use
[7] = Pharmacokinetic studies comparing relative distribution in brain and plasma; format: in vivo; conditions: rodents

Cc1ccc(/C(=C\CN2CCCC2)c2ccccn2)cc1 [Triprolidine, (E)-1-(4-methylphenyl)-1-(2-pyridyl)-3-pyrrolidinoprop-1-ene]
Kb (H1 histamine receptor): 0.0794 nM
antihistamine potency [1]: one of the most potent antihistamines available
sedation and drowsiness [2]: produces sedation and drowsiness in varying degrees in most patients
anticholinergic activity [3]: varying degrees of anticholinergic activity

COc1ccc(CN(CCN(C)C)c2ccccn2)cc1 [pyrilamine]
anticholinergic activity [3]: varying degrees of anticholinergic activity

O=C(O)/C=C/c1cccc(/C(=C/CN2CCCC2)c2ccc(C(F)(F)F)cc2)n1 [Compound of Formula (I), (E)-3-{6-[3-Pyrrolidino-1(4-Trifluoromethylphenyl)prop-1E-enyl]-2-pyridyl}acrylic acid]
sedating effect [4]: essentially not sedating
Kb (H1 histamine receptor): 0.0398 nM
binding to H1 histamine receptor sites [5]: binds competitively to the H1 histamine receptor sites
anticholinergic side effects [6]: little or no anticholinergic side effects
brain penetration [7]: does not readily penetrate the brains of rodents

CC(CN1c2ccccc2Sc2ccccc21)N(C)C (centres unmarked) [promethazine]
anticholinergic activity [3]: varying degrees of anticholinergic activity
